Legend:
Test in all cases: Kinase selectivity screen
CDK6/CCND3 = CDK6/CCND3 (Homo sapiens, UniProt Q00534); details: read-out: % Inhibition CDK6/CCND3
IGF1R = IGF1R (Homo sapiens, UniProt P08069); details: read-out: % Inhibition IGF1R
PIK3CB = PIK3CB (Homo sapiens, UniProt P42338); details: read-out: % Inhibition PIK3CB
FER = FER (Homo sapiens, UniProt P16591); details: read-out: % Inhibition FER
CAMK2B = CAMK2B (Homo sapiens, UniProt Q13554); details: read-out: % Inhibition CAMK2B
NTRK1 = NTRK1 (Homo sapiens, UniProt P04629); details: read-out: % Inhibition NTRK1
FGFR1 = FGFR1 (Homo sapiens, UniProt P11362); details: read-out: % Inhibition FGFR1
FGFR4 = FGFR4 (Homo sapiens, UniProt P22455); details: read-out: % Inhibition FGFR4
INSR = INSR (Homo sapiens, UniProt P06213); details: read-out: % Inhibition INSR
PIK3CA = PIK3CA (Homo sapiens, UniProt P42336); details: read-out: % Inhibition PIK3CA
RAF1 = RAF1 (Homo sapiens, UniProt P04049); details: read-out: % Inhibition RAF1
EPHB4 = EPHB4 (Homo sapiens, UniProt P54760); details: read-out: % Inhibition EPHB4
LCK = LCK (Homo sapiens, UniProt P06239); details: read-out: % Inhibition LCK
KDR = KDR (Homo sapiens, UniProt P35968); details: read-out: % Inhibition KDR
MARK2 = MARK2 (Homo sapiens, UniProt Q7KZI7); details: read-out: % Inhibition MARK2
IKBKB = IKBKB (Homo sapiens, UniProt O14920); details: read-out: % Inhibition IKBKB
DYRK2 = DYRK2 (Homo sapiens, UniProt Q92630); details: read-out: % Inhibition DYRK2
PAK2 = PAK2 (Homo sapiens, UniProt Q13177); details: read-out: % Inhibition PAK2
LYN = LYN (Homo sapiens, UniProt P07948); details: read-out: % Inhibition LYN
AKT2 = AKT2 (Homo sapiens, UniProt P31751); details: read-out: % Inhibition AKT2
MAPKAPK2 = MAPKAPK2 (Homo sapiens, UniProt P49137); details: read-out: % Inhibition MAPKAPK2
ROS1 = ROS1 (Homo sapiens, UniProt P08922); details: read-out: % Inhibition ROS1
PRKACA = PRKACA (Homo sapiens, UniProt P17612); details: read-out: % Inhibition PRKACA
JAK3 = JAK3 (Homo sapiens, UniProt P52333); details: read-out: % Inhibition JAK3
PIK3CG = PIK3CG (Homo sapiens, UniProt P48736); details: read-out: % Inhibition PIK3CG
AXL = AXL (Homo sapiens, UniProt P30530); details: read-out: % Inhibition AXL
MAP2K1 = MAP2K1 (Homo sapiens, UniProt Q02750); details: read-out: % Inhibition MAP2K1
MET = MET (Homo sapiens, UniProt P08581); details: read-out: % Inhibition MET
CSF1R = CSF1R (Homo sapiens, UniProt P07333); details: read-out: % Inhibition CSF1R
KIT = KIT (Homo sapiens, UniProt P10721); details: read-out: % Inhibition KIT
PIM2 = PIM2 (Homo sapiens, UniProt Q9P1W9); details: read-out: % Inhibition PIM2
FGFR3 = FGFR3 (Homo sapiens, UniProt P22607); details: read-out: % Inhibition FGFR3
EEF2K = EEF2K (Homo sapiens, UniProt O00418); details: read-out: % Inhibition EEF2K
MAPK14 = MAPK14 (Homo sapiens, UniProt Q16539); details: read-out: % Inhibition MAPK14
NEK2 = NEK2 (Homo sapiens, UniProt P51955); details: read-out: % Inhibition NEK2
Sequence of NEK2 (P51955 whole entry, species assumed): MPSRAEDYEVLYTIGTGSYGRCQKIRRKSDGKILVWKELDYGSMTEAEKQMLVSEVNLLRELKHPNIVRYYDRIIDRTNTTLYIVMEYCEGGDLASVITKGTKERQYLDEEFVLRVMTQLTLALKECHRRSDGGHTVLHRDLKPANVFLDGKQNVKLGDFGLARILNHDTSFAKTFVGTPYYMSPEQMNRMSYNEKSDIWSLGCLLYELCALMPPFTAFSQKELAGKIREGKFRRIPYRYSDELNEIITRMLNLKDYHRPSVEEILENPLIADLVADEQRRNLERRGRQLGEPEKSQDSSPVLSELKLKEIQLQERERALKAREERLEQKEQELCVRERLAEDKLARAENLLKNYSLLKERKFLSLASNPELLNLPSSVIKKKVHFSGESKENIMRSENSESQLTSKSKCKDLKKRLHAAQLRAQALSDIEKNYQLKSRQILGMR

Sequence of PIK3CB (P42338 whole entry, species assumed): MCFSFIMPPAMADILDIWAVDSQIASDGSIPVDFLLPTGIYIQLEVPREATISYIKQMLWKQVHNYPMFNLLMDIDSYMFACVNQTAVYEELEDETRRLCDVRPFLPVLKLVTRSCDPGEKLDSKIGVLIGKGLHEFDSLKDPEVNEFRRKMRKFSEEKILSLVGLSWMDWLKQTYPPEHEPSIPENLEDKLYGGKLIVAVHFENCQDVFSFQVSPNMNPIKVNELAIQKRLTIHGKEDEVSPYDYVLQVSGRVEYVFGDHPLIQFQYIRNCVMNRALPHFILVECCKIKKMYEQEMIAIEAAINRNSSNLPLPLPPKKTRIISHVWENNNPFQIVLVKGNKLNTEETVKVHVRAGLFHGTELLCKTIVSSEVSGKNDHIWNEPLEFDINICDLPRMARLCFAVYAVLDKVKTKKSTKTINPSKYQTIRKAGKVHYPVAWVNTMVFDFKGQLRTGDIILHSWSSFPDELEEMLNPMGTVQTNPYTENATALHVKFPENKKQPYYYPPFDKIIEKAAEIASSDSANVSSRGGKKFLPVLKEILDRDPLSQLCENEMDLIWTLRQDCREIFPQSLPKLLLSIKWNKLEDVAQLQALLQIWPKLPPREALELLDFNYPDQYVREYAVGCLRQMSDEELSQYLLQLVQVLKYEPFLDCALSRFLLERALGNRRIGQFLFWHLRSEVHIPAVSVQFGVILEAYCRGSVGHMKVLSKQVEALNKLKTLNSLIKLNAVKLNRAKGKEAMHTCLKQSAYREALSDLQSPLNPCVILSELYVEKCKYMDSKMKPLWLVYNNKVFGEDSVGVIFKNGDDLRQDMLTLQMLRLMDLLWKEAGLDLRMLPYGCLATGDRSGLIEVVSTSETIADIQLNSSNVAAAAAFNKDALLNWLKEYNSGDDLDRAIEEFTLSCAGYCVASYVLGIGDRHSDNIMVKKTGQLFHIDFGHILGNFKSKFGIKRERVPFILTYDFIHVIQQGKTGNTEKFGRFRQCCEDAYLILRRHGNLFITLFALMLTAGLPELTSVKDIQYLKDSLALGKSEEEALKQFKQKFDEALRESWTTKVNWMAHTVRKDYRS
Sequence of PIK3CB (P27986 whole entry partner, species assumed): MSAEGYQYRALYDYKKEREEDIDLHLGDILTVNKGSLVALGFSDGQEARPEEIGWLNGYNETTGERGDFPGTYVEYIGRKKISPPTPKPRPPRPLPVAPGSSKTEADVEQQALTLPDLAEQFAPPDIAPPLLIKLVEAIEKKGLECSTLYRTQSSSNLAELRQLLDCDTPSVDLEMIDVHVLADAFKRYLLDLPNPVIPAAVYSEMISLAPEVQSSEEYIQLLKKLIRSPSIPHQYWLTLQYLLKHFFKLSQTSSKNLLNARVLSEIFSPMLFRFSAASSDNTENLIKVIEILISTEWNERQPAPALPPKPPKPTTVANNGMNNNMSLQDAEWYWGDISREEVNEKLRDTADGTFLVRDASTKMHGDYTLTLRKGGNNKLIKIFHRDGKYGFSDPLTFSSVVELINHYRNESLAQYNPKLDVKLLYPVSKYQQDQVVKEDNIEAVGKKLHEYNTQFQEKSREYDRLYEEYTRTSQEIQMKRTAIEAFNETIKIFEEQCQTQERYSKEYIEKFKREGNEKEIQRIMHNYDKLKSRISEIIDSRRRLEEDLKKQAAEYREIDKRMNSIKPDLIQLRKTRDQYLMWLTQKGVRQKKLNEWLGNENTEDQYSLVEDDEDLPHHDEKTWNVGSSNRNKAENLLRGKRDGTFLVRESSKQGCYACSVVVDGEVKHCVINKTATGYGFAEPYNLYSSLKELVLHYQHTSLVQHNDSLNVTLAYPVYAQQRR
Sequence of FGFR1 (P11362 22-822, species assumed): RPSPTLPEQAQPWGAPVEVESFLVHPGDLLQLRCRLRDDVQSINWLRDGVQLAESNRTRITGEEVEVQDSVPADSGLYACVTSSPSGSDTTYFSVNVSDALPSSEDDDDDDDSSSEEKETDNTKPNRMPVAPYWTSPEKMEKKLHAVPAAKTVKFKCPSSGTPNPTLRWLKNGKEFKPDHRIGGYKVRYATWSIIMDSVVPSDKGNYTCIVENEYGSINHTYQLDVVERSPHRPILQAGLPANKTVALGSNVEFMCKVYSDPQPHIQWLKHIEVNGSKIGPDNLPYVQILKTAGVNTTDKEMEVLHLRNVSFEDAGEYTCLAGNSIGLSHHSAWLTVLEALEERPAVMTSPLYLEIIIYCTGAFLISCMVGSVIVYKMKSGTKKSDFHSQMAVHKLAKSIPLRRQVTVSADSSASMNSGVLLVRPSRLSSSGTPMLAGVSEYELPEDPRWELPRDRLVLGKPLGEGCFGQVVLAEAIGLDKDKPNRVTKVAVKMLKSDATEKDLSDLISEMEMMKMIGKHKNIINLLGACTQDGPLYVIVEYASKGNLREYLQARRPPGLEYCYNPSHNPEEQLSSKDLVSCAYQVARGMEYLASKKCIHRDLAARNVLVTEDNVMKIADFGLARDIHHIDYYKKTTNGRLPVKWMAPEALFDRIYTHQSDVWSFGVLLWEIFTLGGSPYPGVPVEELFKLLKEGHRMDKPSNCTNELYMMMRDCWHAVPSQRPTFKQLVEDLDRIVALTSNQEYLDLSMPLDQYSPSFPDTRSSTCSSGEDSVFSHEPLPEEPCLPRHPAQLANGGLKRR
Sequence of PAK2 (Q13177 whole entry, species assumed): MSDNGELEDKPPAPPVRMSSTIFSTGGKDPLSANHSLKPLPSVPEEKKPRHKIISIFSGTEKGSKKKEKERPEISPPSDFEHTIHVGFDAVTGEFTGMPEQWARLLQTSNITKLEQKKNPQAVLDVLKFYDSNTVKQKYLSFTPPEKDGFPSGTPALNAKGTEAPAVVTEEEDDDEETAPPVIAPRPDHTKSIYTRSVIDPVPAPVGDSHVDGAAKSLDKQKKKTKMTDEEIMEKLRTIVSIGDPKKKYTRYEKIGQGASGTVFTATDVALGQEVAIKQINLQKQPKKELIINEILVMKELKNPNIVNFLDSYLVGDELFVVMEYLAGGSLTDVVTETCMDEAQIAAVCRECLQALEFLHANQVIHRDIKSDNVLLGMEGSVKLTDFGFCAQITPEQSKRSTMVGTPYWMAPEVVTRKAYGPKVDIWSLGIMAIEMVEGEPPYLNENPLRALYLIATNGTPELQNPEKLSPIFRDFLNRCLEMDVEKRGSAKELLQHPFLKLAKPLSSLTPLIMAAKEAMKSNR
Sequence of FGFR3 (P22607 23-806, species assumed): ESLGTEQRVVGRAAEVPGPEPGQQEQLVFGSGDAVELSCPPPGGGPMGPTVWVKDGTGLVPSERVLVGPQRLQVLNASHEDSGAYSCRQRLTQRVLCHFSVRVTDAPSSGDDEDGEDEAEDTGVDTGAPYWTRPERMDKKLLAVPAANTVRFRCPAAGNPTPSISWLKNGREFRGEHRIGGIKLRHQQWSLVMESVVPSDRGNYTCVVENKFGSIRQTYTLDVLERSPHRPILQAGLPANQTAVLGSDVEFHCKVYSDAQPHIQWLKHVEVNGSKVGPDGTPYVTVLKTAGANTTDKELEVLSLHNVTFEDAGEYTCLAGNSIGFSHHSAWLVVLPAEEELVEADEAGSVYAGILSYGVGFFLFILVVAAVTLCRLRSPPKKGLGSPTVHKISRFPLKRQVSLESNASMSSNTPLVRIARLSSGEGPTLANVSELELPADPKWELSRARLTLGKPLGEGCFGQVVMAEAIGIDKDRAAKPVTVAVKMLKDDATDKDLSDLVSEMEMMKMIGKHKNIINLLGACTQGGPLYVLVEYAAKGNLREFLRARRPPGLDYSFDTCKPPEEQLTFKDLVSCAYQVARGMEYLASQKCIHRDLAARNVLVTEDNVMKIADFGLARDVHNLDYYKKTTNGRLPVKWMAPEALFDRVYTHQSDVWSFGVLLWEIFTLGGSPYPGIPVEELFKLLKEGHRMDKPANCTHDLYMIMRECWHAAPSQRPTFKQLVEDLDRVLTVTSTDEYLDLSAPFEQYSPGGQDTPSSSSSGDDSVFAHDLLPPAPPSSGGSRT
Sequence of AKT2 (P31751 whole entry, species assumed): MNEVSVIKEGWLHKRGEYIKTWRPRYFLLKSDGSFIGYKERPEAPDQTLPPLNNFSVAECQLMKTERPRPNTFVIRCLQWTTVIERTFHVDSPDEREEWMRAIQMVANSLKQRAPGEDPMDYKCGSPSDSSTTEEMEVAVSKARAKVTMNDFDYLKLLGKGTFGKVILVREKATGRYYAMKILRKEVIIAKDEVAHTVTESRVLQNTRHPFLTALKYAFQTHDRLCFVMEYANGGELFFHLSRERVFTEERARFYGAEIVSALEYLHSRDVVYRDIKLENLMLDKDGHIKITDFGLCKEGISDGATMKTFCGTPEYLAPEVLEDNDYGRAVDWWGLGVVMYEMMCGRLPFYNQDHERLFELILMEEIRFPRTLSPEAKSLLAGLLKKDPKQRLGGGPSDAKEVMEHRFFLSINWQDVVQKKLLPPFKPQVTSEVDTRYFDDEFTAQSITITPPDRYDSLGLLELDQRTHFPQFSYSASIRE

For `CC(C)Oc1cc(F)ccc1Nc1ncnc2cc(C(=O)NCCCN(C)C)n(C)c12` [Example 40, N-[3-(dimethylamino)propyl]-4-{[4-fluoro-2-(propan-2-yloxy)phenyl]amino}-5-methyl-5H-pyrrolo[3,2-d]pyrimidine-6-carboxamide], the inhibition at 1 µM (CDK6/CCND3) was 0%, the inhibition at 1 µM (IGF1R) was 0% and the inhibition at 1 µM (PIK3CB) was 1%. The inhibition at 1 µM (FER) was 0%, the inhibition at 1 µM (CAMK2B) was 14% and the inhibition at 1 µM (NTRK1) was 0%. For the same compound, the inhibition at 1 µM (FGFR1) was 0%, the inhibition at 1 µM (FGFR4) was 0% and the inhibition at 1 µM (INSR) was 0%. For the same compound, the inhibition at 1 µM (PIK3CA) was 5%, the inhibition at 1 µM (RAF1) was 0% and the inhibition at 1 µM (EPHB4) was 2%. The inhibition at 1 µM (LCK) was 0%, the inhibition at 1 µM (KDR) was 5% and the inhibition at 1 µM (MARK2) was 0%. For the same compound, the inhibition at 1 µM (IKBKB) was 0%, the inhibition at 1 µM (DYRK2) was 8% and the inhibition at 1 µM (PAK2) was 0%. For the same compound, the inhibition at 1 µM (LYN) was 11%, the inhibition at 1 µM (AKT2) was 0% and the inhibition at 1 µM (MAPKAPK2) was 0%. The inhibition at 1 µM (ROS1) was 0%, the inhibition at 1 µM (PRKACA) was 0% and the inhibition at 1 µM (JAK3) was 0%. The inhibition at 1 µM (PIK3CG) was 1%, the inhibition at 1 µM (AXL) was 0% and the inhibition at 1 µM (MAP2K1) was 0%. The inhibition at 1 µM (MET) was 13%, the inhibition at 1 µM (CSF1R) was 8% and the inhibition at 1 µM (KIT) was 2%. It also gave an inhibition at 1 µM (PIM2) of 0%, an inhibition at 1 µM (FGFR3) of 10% and an inhibition at 1 µM (EEF2K) of 0%. For the same compound, the inhibition at 1 µM (MAPK14) was 0% and the inhibition at 1 µM (NEK2) was 0%.
